According to US20150031102A1, “METHODS AND COMPOSITIONS FOR ENHANCED PRODUCTION OF BUTANOL BY CLOSTRIDIA” (Butrolix LLC, priority 2012, published 2015):

Test system: Clostridium acetobutylicum strain ATCC 824
Assay: Sequential batch transfer in 24-well culture plates (butanol, residual glucose, butanol yield and productivity)
Type: cell-based
Conditions: after 96 hours of culture; for Residual glucose concentration: initial glucose 60 g/L; for Butanol: Experiment 1
Protocol: Each well contained 1.5 mL of growth medium. Peptide was added to each well at the indicated concentration (0, 25, 50, and 100 nM). Every 24 hours fresh medium and peptide treatment were added to a new column of wells then 1.5 μL of the previous day culture was transferred to the new well. Wells were harvested for glucose and butanol analysis after 96 hours of growth. Transfers 1, 4, 7, 10, 13, 16, […].
Briefly, Clostridium spores were germinated in a suitable growth medium for 18-24 hours then […] was transferred to 1.5 mL of fresh medium in each of four wells on a 24-well culture plate. Three of the wells had been treated with 25 nM, 50 nM and 100 nM of peptide, respectively while the fourth well was untreated. Thereafter, every 24 hours […] of each subculture was transferred to 1.5 mL of fresh medium that contained the same peptide treatment or no treatment. Transfers of successive subcultures were done for 24 days, and each subculture was grown for 96 hours before being harvested. Culture supernatants were recovered following centrifugation and were analyzed for butanol and residual glucose concentrations. Determination of optimum peptide treatment levels was based on a graphical comparison of the concentration of butanol in each of the four culture wells for sequential transfers 1, 4, 7, 10, 13, 16, 19, 22 and 24.
Clostridium acetobutylicum strain ATCC 824 was used in all experiments and the growth medium used for sequential batch transfer, time course, and continuous culture experiments contained yeast extract, casamino acids, L-cysteine, L-asparagine, phosphate buffer, trace minerals, and 6% glucose. What are believed to be quorum-sensing peptides that were used in the experiments were chemically synthesized peptides SEQ ID NO: 143 (amino acid sequence: SYPGWSW) and SEQ ID NO: 144 (amino acid sequence: ILILISG). Routine growth of the bacteria as well as the sequential batch and time course experiments were conducted in a Form a Scientific Model 1029 anaerobic gas chamber at 32° C. Continuous cultures were performed at 32° C. using duplicate New Brunswick Scientific BioFlo 3000 apparati with a dilution rate of 0.01 volume per hour, 75 rpm agitation, and nitrogen gas sparging. Optical density of culture samples was measured at 600 nm in a Beckman DU 600 series spectrophotometer and glucose was analyzed using a YSI Model 2700 Select Biochemistry Analyzer with internal glucose calibration. Butanol concentrations were determined by measuring experimental and standard samples using a Varian Saturn 3 Gas Chromatograph/Mass Spectrometer and calculating butanol concentrations using standard curves.
(§1) Sequential batch transfer experiments were carried out in 24-well culture plates that contained 1.5 mL of medium per well. Peptide was added to each well at the indicated concentrations of 0 nM (control), 25 nM, 50 nM, or 100 nM. Every 24 hours, fresh medium and peptide treatments were added to a new column of wells. Then, 1.5 uL of the previous day culture was transferred to the new well. Wells were harvested for glucose and butanol analysis after 96 hours of growth; transfers 1, 4, 7, 10, 13, 16, 19, 22, and 24 were analyzed. Two representative experiments are shown in Tables 30 and 31 and FIGS. 14 and 15.
as §1, with “32” for “30”, “33” for “31”, “16” for “14”, “17.” for “15.”

[1] = 25 nM peptide, transfer 1, Expt. 2 (repeat)
[2] = 25 nM peptide, transfer 4, Expt. 2 (repeat)
[3] = 25 nM peptide, transfer 7, Expt. 2 (repeat)
[4] = 25 nM peptide, transfer 10, Expt. 2 (repeat)
[5] = 25 nM peptide, transfer 13, Expt. 2 (repeat)
[6] = 25 nM peptide, transfer 16, Expt. 2 (repeat)
[7] = 25 nM peptide, transfer 19, Expt. 2 (repeat)
[8] = 25 nM peptide, transfer 22, Expt. 2 (repeat)
[9] = 25 nM peptide, transfer 24, Expt. 2 (repeat)
[10] = 25 nM, transfer 1, first experiment
[11] = 25 nM, transfer 4, first experiment
[12] = 25 nM, transfer 7, first experiment
[13] = 25 nM, transfer 10, first experiment
[14] = 25 nM, transfer 13, first experiment
[15] = 25 nM, transfer 16, first experiment
[16] = 25 nM, transfer 19, first experiment
[17] = 25 nM, transfer 22, first experiment
[18] = 25 nM, transfer 24, first experiment
[19] = 50 nM peptide, transfer 1, Expt. 2 (repeat)
[20] = 50 nM peptide, transfer 4, Expt. 2 (repeat)
[21] = 50 nM peptide, transfer 7, Expt. 2 (repeat)
[22] = 50 nM peptide, transfer 10, Expt. 2 (repeat)
[23] = 50 nM peptide, transfer 13, Expt. 2 (repeat)
[24] = 50 nM peptide, transfer 16, Expt. 2 (repeat)
[25] = 50 nM peptide, transfer 19, Expt. 2 (repeat)
[26] = 50 nM peptide, transfer 22, Expt. 2 (repeat)
[27] = 50 nM peptide, transfer 24, Expt. 2 (repeat)
[28] = 50 nM, transfer 1, first experiment
[29] = 50 nM, transfer 4, first experiment
[30] = 50 nM, transfer 7, first experiment

SYPGWSW [peptide SEQ ID NO: 143]
Butanol concentration [1]: 0.75 g/L | Butanol productivity [1]: 0.01 g butanol/L-h | Butanol yield [1]: 0.01 g butanol/g/glucose | Residual glucose concentration [1]: 49.0 g/L | Butanol concentration [2]: 1.40 g/L | Butanol productivity [2]: 0.01 g butanol/L-h | Butanol yield [2]: 0.02 g butanol/g/glucose | Residual glucose concentration [2]: 43.5 g/L | Butanol concentration [3]: 1.83 g/L | Butanol productivity [3]: 0.02 g butanol/L-h | Butanol yield [3]: 0.03 g butanol/g/glucose | Residual glucose concentration [3]: 48.9 g/L | Butanol concentration [4]: 2.93 g/L | Butanol productivity [4]: 0.03 g butanol/L-h | Butanol yield [4]: 0.05 g butanol/g/glucose | Residual glucose concentration [4]: 43.9 g/L | Butanol concentration [5]: 2.89 g/L | Butanol productivity [5]: 0.03 g butanol/L-h | Butanol yield [5]: 0.05 g butanol/g/glucose | Residual glucose concentration [5]: 44.7 g/L | Butanol concentration [6]: 6.32 g/L | Butanol productivity [6]: 0.07 g butanol/L-h | Butanol yield [6]: 0.11 g butanol/g/glucose | Residual glucose concentration [6]: 39.1 g/L | Butanol concentration [7]: 2.65 g/L | Butanol productivity [7]: 0.03 g butanol/L-h | Butanol yield [7]: 0.05 g butanol/g/glucose | Residual glucose concentration [7]: 44.1 g/L | Butanol concentration [8]: 6.86 g/L | Butanol productivity [8]: 0.07 g butanol/L-h | Butanol yield [8]: 0.12 g butanol/g/glucose | Residual glucose concentration [8]: 0.1 g/L | Butanol concentration [9]: 5.33 g/L | Butanol productivity [9]: 0.06 g butanol/L-h | Butanol yield [9]: 0.09 g butanol/g/glucose | Residual glucose concentration [9]: 16.0 g/L | Butanol (25 nM, transfer 1): 1.21 g/L | Butanol productivity [10]: 0.01 g butanol/L-h | Butanol yield [10]: 0.02 g butanol/g/glucose | Residual glucose concentration [10]: 45.3 g/L | Butanol (25 nM, transfer 4): 11.87 g/L | Butanol productivity [11]: 0.12 g butanol/L-h | Butanol yield [11]: 0.20 g butanol/g/glucose | Residual glucose concentration [11]: 0.1 g/L | Butanol (25 nM, transfer 7): 9.09 g/L | Butanol productivity [12]: 0.09 g butanol/L-h | Butanol yield [12]: 0.15 g butanol/g/glucose | Residual glucose concentration [12]: 0.1 g/L | Butanol (25 nM, transfer 10): 12.83 g/L | Butanol productivity [13]: 0.13 g butanol/L-h | Butanol yield [13]: 0.22 g butanol/g/glucose | Residual glucose concentration [13]: 0.1 g/L | Butanol (25 nM, transfer 13): 9.97 g/L | Butanol productivity [14]: 0.10 g butanol/L-h | Butanol yield [14]: 0.17 g butanol/g/glucose | Residual glucose concentration [14]: 0.1 g/L | Butanol (25 nM, transfer 16): 11.66 g/L | Butanol productivity [15]: 0.12 g butanol/L-h | Butanol yield [15]: 0.20 g butanol/g/glucose | Residual glucose concentration [15]: 0.1 g/L | Butanol (25 nM, transfer 19): 4.37 g/L | Butanol productivity [16]: 0.05 g butanol/L-h | Butanol yield [16]: 0.07 g butanol/g/glucose | Residual glucose concentration [16]: 48.1 g/L | Butanol (25 nM, transfer 22): 7.12 g/L | Butanol productivity [17]: 0.07 g butanol/L-h | Butanol yield [17]: 0.12 g butanol/g/glucose | Residual glucose concentration [17]: 45.7 g/L | Butanol (25 nM, transfer 24): 5.06 g/L | Butanol productivity [18]: 0.05 g butanol/L-h | Butanol yield [18]: 0.08 g butanol/g/glucose | Residual glucose concentration [18]: 48.5 g/L | Butanol concentration [19]: 0.72 g/L | Butanol productivity [19]: 0.01 g butanol/L-h | Butanol yield [19]: 0.01 g butanol/g/glucose | Residual glucose concentration [19]: 48.9 g/L | Butanol concentration [20]: 1.41 g/L | Butanol productivity [20]: 0.01 g butanol/L-h | Butanol yield [20]: 0.02 g butanol/g/glucose | Residual glucose concentration [20]: 43.2 g/L | Butanol concentration [21]: 3.09 g/L | Butanol productivity [21]: 0.03 g butanol/L-h | Butanol yield [21]: 0.05 g butanol/g/glucose | Residual glucose concentration [21]: 41.3 g/L | Butanol concentration [22]: 7.69 g/L | Butanol productivity [22]: 0.08 g butanol/L-h | Butanol yield [22]: 0.13 g butanol/g/glucose | Residual glucose concentration [22]: 0.5 g/L | Butanol concentration [23]: 8.72 g/L | Butanol productivity [23]: 0.09 g butanol/L-h | Butanol yield [23]: 0.15 g butanol/g/glucose | Residual glucose concentration [23]: 0.1 g/L | Butanol concentration [24]: 10.70 g/L | Butanol productivity [24]: 0.11 g butanol/L-h | Butanol yield [24]: 0.18 g butanol/g/glucose | Residual glucose concentration [24]: 0.1 g/L | Butanol concentration [25]: 5.75 g/L | Butanol productivity [25]: 0.06 g butanol/L-h | Butanol yield [25]: 0.10 g butanol/g/glucose | Residual glucose concentration [25]: 0.1 g/L | Butanol concentration [26]: 4.54 g/L | Butanol productivity [26]: 0.05 g butanol/L-h | Butanol yield [26]: 0.08 g butanol/g/glucose | Residual glucose concentration [26]: 0.1 g/L | Butanol concentration [27]: 4.78 g/L | Butanol productivity [27]: 0.05 g butanol/L-h | Butanol yield [27]: 0.08 g butanol/g/glucose | Residual glucose concentration [27]: 0.1 g/L | Butanol (50 nM, transfer 1): 1.12 g/L | Butanol productivity [28]: 0.01 g butanol/L-h | Butanol yield [28]: 0.02 g butanol/g/glucose | Residual glucose concentration [28]: 45.5 g/L | Butanol (50 nM, transfer 4): 11.53 g/L | Butanol productivity [29]: 0.12 g butanol/L-h | Butanol yield [29]: 0.19 g butanol/g/glucose | Residual glucose concentration [29]: 0.1 g/L | Butanol (50 nM, transfer 7): 9.36 g/L | Butanol productivity [30]: 0.10 g butanol/L-h | Butanol yield [30]: 0.16 g butanol/g/glucose | Residual glucose concentration [30]: 0.1 g/L | Butanol (50 nM, transfer 10): 13.66 g/L
